Reference: patent publication US20200306313A1, “METHODS AND COMPOSITIONS FOR NON-CYTOTOXIC STEM CELL TRANSPLANTATION” (THE BOARD OF REGENTS OF THE UNIVERSITY OF TEXAS SYSTEM, priority 2014, published 2020)

Key:
[1] = without irradiation and chemotherapy; cited from earlier work
[2] = tested on: MitoPark™ mice; assay: Spontaneous locomotor activity of MitoPark mice; assay type: in vivo
Text: Vertical movements declined earlier and faster than horizontal movements (data not shown), modeling the early occurrence of axial postural instability in PD. […] The MitoPark™ mice began to lose weight from ˜20 weeks and died at 29-33 weeks of age, at which point the majority of substantia nigra DA neurons had been lost.

[3] = tested on: mice; assay: Motor coordination tests in MPTP-only model; assay type: in vivo; conditions: MPTP-treated group vs saline-treated controls
Text: MPTP/probenecid mouse model. […] In addition, spontaneous recovery of the nigrostriatal system that is typically observed with this regimen places limits on detection of changes in motor coordination. Mice were subjected to tests for motor coordination, including rotarod test, gait test/foot print analysis, pole test, beam walking test, and grid test.

[4] = tested on: TH-positive neurons in the SNpc; assay: Stereology of TH-positive neurons in SNpc after MPTP; conditions: MPTP-alone regimen
Procedure: (§1) Eight weeks after transplantation, recipient mice were injected with MPTP to induce dopaminergic neurodegeneration. MPTP dissolved in saline was injected subcutaneously into MSP-GDNF and MSP-GFP mice as follows: 15 mg/kg free base MPTP on day 1, 25 mg/kg on day 2, and 30 mg/kg on days 3-7. Control mice were treated with saline following the same regimen. Nine weeks after the last injection of MPTP or saline, MSP-GFP mice were sacrificed to evaluate the differentiation of gene-modified macrophages into microglia and their recruitment to substantia nigra.
Three or nine weeks after the last MPTP or saline injection, recipient mice were sacrificed and the neuroprotective effect of macrophage-mediated GDNF delivery on the nigrostriatal dopaminergic system was assessed by quantitative analysis of TH-positive neurons in the substantia nigra pars compacta (SNpc), as well as the density of TH-positive terminals in the striatum. […] In addition, total number of Nissl-stained neurons in the SNpc was counted for each treatment group to make sure that GDNF treatment indeed prevented actual cell death (FIG. 8).

[5] = tested on: substantia nigra microglia; assay: Recruitment of bone marrow-derived microglia to substantia nigra after MPTP; assay type: in vivo; conditions: MSP-GFP mice nine weeks after the last injection of MPTP
Procedure: as §1

[6] = tested on: TH-positive cells in the SNpc; assay: Continuous MPTP osmotic minipump infusion, TH-positive and GFP cells in SNpc; assay type: in vivo, mice; conditions: continuous infusion 5 mg MPTP/kg daily for 28 days
Procedure: FIGS. 7A-B. Plots of quantitative stereologic data illustrating TH-positive cells in the SNpc from mice that were continuously treated with saline (n=3) or 5 mg MPTP/kg daily (n=2) for 28 days (FIG. 7A). Semi-quantitative analysis of GFP-positive cells in the nigra of mice that were continuously treated with saline (n=3) or 5 mg MPTP/kg daily (n =2) for 28 days. Each bar represents the mean±standard error of the total number of GFP-positive cells per five representative sections of substantia nigra pars compacta per animal (FIG. 7B).
The minipumps were implanted subcutaneously on the upper back of the animal. The minipumps delivers saline or MPTP at a flow rate 0.35μ1/hr for 28 days. The concentration of MPTP solution was adjusted in such a way that the animals receive or 5 mg MPTP/kg daily for 28 days. On day 30 (after the start of MPTP or saline) the animals were killed and the brains were analyzed for the loss of TH-posive cells and the recruitment bone marrow derived GFP cells in the SNpc.

[7] = cited from earlier work

In the case of c1cc(CN2CCCNCCNCCCNCC2)ccc1CN1CCCNCCNCCCNCC1 [AMD3100], the “effectiveness as conditioning regimen” value [1] is listed as “not to be sufficiently effective”.

In the case of N[C@@H](Cc1ccc(O)c(O)c1)C(=O)O [L-DOPA], the locomotor deficits [2] is reported as “transiently reversed”.

In the case of CN1CC=C(c2ccccc2)CC1 [MPTP, 1-methyl-4-phenyl-1,2,3,6-tetrahydropyridine], the “motor coordination (rotarod, gait/foot print, pole, beam walking, grid test)” value [3] is reported as “None of these tests showed statistically significant differences”, the “reduction in TH-positive cells” value [4] is reported as “approximately 50%” and the “proportion of total microglia (Iba1-positive) in the nigra that were bone marrow derived” value [5] is reported as 47%. For the same molecule, the “increase in the number of bone marrow derived GFP cells in the SNpc” value [6] was “four-fold” and the “loss of TH-positive cells in the SNpc” value [6] was “approximately 31%”.

B1: glial cell line derived neurotrophic factor (protein, UniProt P39905 78-211, looked up)
Glial cell line-derived …: SPDKQMAVLPRRERNRQAAAANPENSRGKGRRGQRGKNRGCVLTAIHLNVTDLGLGYETKEELIFRYCSGSCDAAETTYDKILKNLSRNRRLVSDKVGQACCRPIAFDDDLSFLDDNLVYHILRKHSAKRCGCI
In the case of B1, the side effects ([7]; direct brain infusion) is listed as “side effects, including allodynia and weight loss” and the cerebellar toxicity ([7]; high doses (100 μg/day) intraputamenal) is listed as “significant cerebellar Purkinje cell death”.
